Source: patent EP0429304A2, “Pyridone-carboxylic acid derivatives and their use as veterinary medicines” (SHIONOGI SEIYAKU KABUSHIKI KAISHA trading under the name of …, priority 1989, dated 1991)
Counter-ions that a name gives are not always drawn. Like-named read-outs stand apart in the source and are kept apart here.

Key:
[1] = system: Mycoplasma synoviae (MS) F10-2as; test: In vitro sensitivity test (liquid dilution method); assay type: cell-based; conditions: 37°C, 7 days
Outline: (§1)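 Read-out is visual growth after incubation. Conditions were 37°C for 7 days in Frey medium (12 % pig-serum, 0.01 % βNAD; liquid dilution) for MS, and 37°C for 20 to 24 hours on Mueller Hinton agar for S.au. P.pis used 25°C, 40 to 48 hours, on 1.5 % NaCl heart infusion agar.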

[2] = system: Mycoplasma gallisepticum (MG) S6; test: In vitro sensitivity test (liquid dilution method); assay type: cell-based; conditions: 37°C, 7 days
[3] = system: Mycoplasma synoviae (MS) 1853; test: In vitro sensitivity test (liquid dilution method); assay type: cell-based; conditions: 37°C, 7 days
Outline: as §1

[4] = system: Mycoplasma gallisepticum (MG) T-7-T, TS-resistant strain isolated from the field; test: In vitro sensitivity test (liquid dilution method); assay type: cell-based; conditions: 37°C, 7 days
[5] = system: Mycoplasma hyopneumoniae (Mh) ST-11; test: In vitro sensitivity test (liquid dilution method); assay type: cell-based; conditions: 37°C, 7 days
[6] = system: Escherichia coli (E.coli) JC-2; test: In vitro sensitivity test (agar dilution method); assay type: cell-based; conditions: 37°C, 20 to 24 hours
[7] = system: Staphylococcus aureus (S.au) 209P; test: In vitro sensitivity test (agar dilution method); assay type: cell-based; conditions: 37°C, 20 to 24 hours
Outline: (§2)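 For the fish-origin P.pis strain this meant heart infusion agar supplemented with 1.5 % NaCl at 25°C for 40 to 48 hours. S.au plates used Mueller Hinton agar at 37°C for 20 to 24 hours. MS broths used Frey medium with 12 % pig-serum and 0.01 % βNAD at 37°C for 7 days.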

[8] = system: Hemophilus pleuropneumonia (H.pp) M-1; test: In vitro sensitivity test (agar dilution method); assay type: cell-based; conditions: 37°C, 20 hours, 10 % CO₂
[9] = system: Salmonella typhimurium (S.typhi) 13311; test: In vitro sensitivity test (agar dilution method); assay type: cell-based; conditions: 37°C, 20 to 24 hours
TS-resistant MG = test: Experimental MG infection to chicken, through bait; assay type: in vivo; conditions: for Number of fowl having air sack lesions / Infectious index Left air sack + / Infectious index Left air sack ++ / Infectious index Left air sack +++ / Infectious index Left air sack - / Infectious index Right air sack + / Infectious index Right air sack ++ / Infectious index Right air sack +++ / Infectious index Right air sack -: 9-days chicken, 1.8 x 10³ CFU/fowl; for Infectious index Left air sack + / Infectious index Left air sack ++ / Infectious index Left air sack +++ / Infectious index Left air sack - / Infectious index Right air sack + / Infectious index Right air sack ++ / Infectious index Right air sack +++ / Infectious index Right air sack -: count of fowl
[10] = system: Pasteurella piscicida (P.pis) No. 2; test: In vitro sensitivity test; assay type: cell-based; conditions: 25°C, 40 to 48 hours
Outline: as §1

[11] = system: Streptococcus sp (Str.sp) SNO6119; test: In vitro sensitivity test; assay type: cell-based; conditions: 25°C, 40 to 48 hours
[12] = system: TS-resistant strain of MG; assay type: in vivo, chicken; conditions: for Infectious index Left air sack + / Infectious index Left air sack ++ / Infectious index Left air sack +++ / Infectious index Left air sack - / Infectious index Right air sack + / Infectious index Right air sack ++ / Infectious index Right air sack +++ / Infectious index Right air sack -: count of fowl; for Infectious index Left air sack + / Infectious index Left air sack ++ / Infectious index Left air sack +++ / Infectious index Left air sack - / Infectious index Right air sack + / Infectious index Right air sack ++ / Infectious index Right air sack +++ / Infectious index Right air sack - / Number of fowl having air sack lesions: 10-days chicken, 1.2 x 10³ CFU/fowl
[13] = system: Hemophilus paragallinarum (H.pg) S-1; test: In vitro sensitivity test (agar dilution method); assay type: cell-based; conditions: agar dilution, 37°C, 20 hours, 10 % CO₂
[14] = system: Hemophilus paragallinarum (H.pg) 221; test: In vitro sensitivity test (agar dilution method); assay type: cell-based; conditions: agar dilution, 37°C, 20 hours, 10 % CO₂
[15] = system: Escherichia coli (E.coli) E-17, chicken-origin strain isolated from the field; test: In vitro sensitivity test (agar dilution method); assay type: cell-based; conditions: 37°C, 20 to 24 hours
Outline: as §2

[16] = system: Bordetella bronchiseptica (B.br) ABU-1; test: In vitro sensitivity test (agar dilution method); assay type: cell-based; conditions: 37°C, 20 to 24 hours

Q: How did the “In vitro Sensitivity Test MS F10-2as” value [1] turn out when Tylosin® [TSP, reference compound] was run?
A: The value was 0.1 µg/ml.

Q: What about the “In vitro Sensitivity Test MG S6” value [2] of the same compound?
A: The value was 0.05 µg/mL.

Q: And the “In vitro Sensitivity Test MS 1853” value [3]?
A: Its value is 0.1 µg/mL.

Q: What about the “In vitro Sensitivity Test MG T-7-T” value [4] of the same compound?
A: Its value is 6.25 µg/mL.

Q: What about the “In vitro Sensitivity Test Mh ST-11” value [5] of the same compound?
A: The value was 0.1 µg/mL.

Q: And the “In vitro Sensitivity Test E.coli JC-2” value [6]?
A: The value was 25.0 µg/mL.

Q: And the “In vitro Sensitivity Test S.au 209P” value [7]?
A: The value was 0.39 µg/mL.

Q: And the “In vitro Sensitivity Test H.pp M-1” value [8]?
A: The value was 25.0 µg/mL.

Q: What about the “In vitro Sensitivity Test S.typhi 13311” value [9] of the same compound?
A: Its value is 0.39 µg/mL.

Q: What about the “Number of fowl having air sack lesions” value (TS-resistant MG; bait 1100 ppm/Day) of the same compound?
A: The value was 5.

Q: And the “Infectious index Left air sack +” value (TS-resistant MG; bait 1100 ppm/Day)?
A: Its value is 1.

Q: What about the “Infectious index Left air sack ++” value (TS-resistant MG; bait 1100 ppm/Day) of the same compound?
A: Its value is 0.

Q: And the “Infectious index Left air sack +++” value (TS-resistant MG; bait 1100 ppm/Day)?
A: Its value is 0.

Q: And the “Infectious index Left air sack -” value (TS-resistant MG; bait 1100 ppm/Day)?
A: Its value is 4.

Q: And the “Infectious index Right air sack +” value (TS-resistant MG; bait 1100 ppm/Day)?
A: Its value is 3.

Q: And the “Infectious index Right air sack ++” value (TS-resistant MG; bait 1100 ppm/Day)?
A: The value was 2.

Q: And the “Infectious index Right air sack +++” value (TS-resistant MG; bait 1100 ppm/Day)?
A: Its value is 0.

Q: And the “Infectious index Right air sack -” value (TS-resistant MG; bait 1100 ppm/Day)?
A: The value was 0.

Q: What about the “inhibition of lesions in air sacs” value (TS-resistant MG; through bait, 1100 ppm) of the same compound?
A: Its value is “could not inhibit lesions in air sacs”.

Q: What does the source list for `CN(C)[C@@H]1C(O)=C(C(N)=O)C(=O)[C@@]2(O)C(O)=C3C(=O)c4c(O)ccc(Cl)c4[C@@](C)(O)[C@H]3C[C@@H]12` [CTC, chlorotetracycline hydrochloride, reference compound]?
A: In vitro Sensitivity Test MS F10-2as [1]: 0.39 µg/ml; In vitro Sensitivity Test MG S6 [2]: 12.5 µg/mL; In vitro Sensitivity Test MS 1853 [3]: 0.05 µg/mL; In vitro Sensitivity Test MG T-7-T [4]: 6.25 µg/mL; In vitro Sensitivity Test Mh ST-11 [5]: 1.56 µg/mL; In vitro Sensitivity Test E.coli JC-2 [6]: 0.39 µg/mL; In vitro Sensitivity Test S.au 209P [7]: 0.1 µg/mL; In vitro Sensitivity Test S.typhi 13311 [9]: 0.1 µg/mL; Number of fowl having air sack lesions (TS-resistant MG; bait 880 ppm/Day): 4; Infectious index Left air sack + (TS-resistant MG; bait 880 ppm/Day): 0; Infectious index Left air sack ++ (TS-resistant MG; bait 880 ppm/Day): 0; Infectious index Left air sack +++ (TS-resistant MG; bait 880 ppm/Day): 0; Infectious index Left air sack - (TS-resistant MG; bait 880 ppm/Day): 5; Infectious index Right air sack + (TS-resistant MG; bait 880 ppm/Day): 3; Infectious index Right air sack ++ (TS-resistant MG; bait 880 ppm/Day): 1; Infectious index Right air sack +++ (TS-resistant MG; bait 880 ppm/Day): 0; Infectious index Right air sack - (TS-resistant MG; bait 880 ppm/Day): 1

Q: How did the “In vitro Sensitivity Test P.pis No. 2” value [10] turn out when `NC[C@@]12CCC[C@@H]1CN(c1cc3c(cc1F)c(=O)c(C(=O)O)cn3C1CC1)C2` (relative stereo) [I-8, 7-[(1R*,5S*)-1-aminomethyl-3-azabicyclo[3.3.0]octan-3-yl]-1-cyclopropyl-6-fluoro-1,4-dihydro-4-oxo-3-quinolinecarboxylic acid] was run?
A: The value was 0.78 µg/mL.

Q: What about the “In vitro Sensitivity Test Str.sp SNO6119” value [11] of the same compound?
A: Its value is 0.78 µg/mL.

Q: What about the “Infectious index Left air sack +” value ([12]; oral 1.56 mg/kg) of the same compound?
A: The value was 0.

Q: And the “Infectious index Left air sack ++” value ([12]; oral 1.56 mg/kg)?
A: The value was 0.

Q: What about the “Infectious index Left air sack +++” value ([12]; oral 1.56 mg/kg) of the same compound?
A: The value was 0.

Q: What about the “Infectious index Left air sack -” value ([12]; oral 1.56 mg/kg) of the same compound?
A: The value was 5.

Q: And the “Infectious index Right air sack +” value ([12]; oral 1.56 mg/kg)?
A: Its value is 3.

Q: What about the “Infectious index Right air sack ++” value ([12]; oral 1.56 mg/kg) of the same compound?
A: The value was 2.

Q: And the “Infectious index Right air sack +++” value ([12]; oral 1.56 mg/kg)?
A: Its value is 0.

Q: And the “Infectious index Right air sack -” value ([12]; oral 1.56 mg/kg)?
A: The value was 0.

Q: What about the “Infectious index Left air sack +” value ([12]; oral 3.13 mg/kg) of the same compound?
A: The value was 0.

Q: What about the “Infectious index Left air sack ++” value ([12]; oral 3.13 mg/kg) of the same compound?
A: Its value is 0.

Q: And the “Infectious index Left air sack +++” value ([12]; oral 3.13 mg/kg)?
A: The value was 0.

Q: And the “Infectious index Left air sack -” value ([12]; oral 3.13 mg/kg)?
A: The value was 5.

Q: And the “Infectious index Right air sack +” value ([12]; oral 3.13 mg/kg)?
A: The value was 1.

Q: What about the “Infectious index Right air sack ++” value ([12]; oral 3.13 mg/kg) of the same compound?
A: Its value is 0.

Q: And the “Infectious index Right air sack +++” value ([12]; oral 3.13 mg/kg)?
A: Its value is 0.

Q: What about the “Infectious index Right air sack -” value ([12]; oral 3.13 mg/kg) of the same compound?
A: The value was 4.

Q: And the “Infectious index Left air sack +” value ([12]; oral 6.25 mg/kg)?
A: The value was 0.

Q: What about the “Infectious index Left air sack ++” value ([12]; oral 6.25 mg/kg) of the same compound?
A: The value was 0.

Q: What about the “Infectious index Left air sack +++” value ([12]; oral 6.25 mg/kg) of the same compound?
A: Its value is 0.

Q: What about the “Infectious index Left air sack -” value ([12]; oral 6.25 mg/kg) of the same compound?
A: The value was 5.

Q: And the “Infectious index Right air sack +” value ([12]; oral 6.25 mg/kg)?
A: Its value is 0.

Q: And the “Infectious index Right air sack ++” value ([12]; oral 6.25 mg/kg)?
A: Its value is 0.

Q: And the “Infectious index Right air sack +++” value ([12]; oral 6.25 mg/kg)?
A: The value was 0.

Q: What about the “Infectious index Right air sack -” value ([12]; oral 6.25 mg/kg) of the same compound?
A: The value was 5.

Q: And the “antimicrobial activity compared with ERFX” value ([12]; in vivo, po)?
A: The value was “two times more effective than ERFX”.

Q: What about the “Number of fowl having air sack lesions” value ([12]; oral 1.56 mg/kg) of the same compound?
A: The value was 5.

Q: And the “Number of fowl having air sack lesions” value ([12]; oral 3.13 mg/kg)?
A: Its value is 1.

Q: What about the “Number of fowl having air sack lesions” value ([12]; oral 6.25 mg/kg) of the same compound?
A: Its value is 0.

Q: What about the “complete inihibition of the lesions in air sac at a concentration of” value ([12]; oral administration, MG-infected chicken) of the same compound?
A: Its value is “about 3.13 mg/kg”.

Q: What about the “In vitro Sensitivity Test MS F10-2as” value [1] of the same compound?
A: The value was 0.1 µg/ml.

Q: And the “In vitro Sensitivity Test MG S6” value [2]?
A: Its value is under 0.00313 µg/mL.

Q: What about the “In vitro Sensitivity Test MS 1853” value [3] of the same compound?
A: Its value is 0.1 µg/mL.

Q: What about the “In vitro Sensitivity Test MG T-7-T” value [4] of the same compound?
A: The value was 0.00625 µg/mL.

Q: And the “In vitro Sensitivity Test Mh ST-11” value [5]?
A: Its value is under 0.025 µg/mL.

Q: And the “In vitro Sensitivity Test H.pg S-1” value [13]?
A: The value was 0.2 µg/mL.

Q: What about the “In vitro Sensitivity Test H.pg 221” value [14] of the same compound?
A: Its value is 0.2 µg/mL.

Q: What about the “In vitro Sensitivity Test E.coli JC-2” value [6] of the same compound?
A: The value was 0.05 µg/mL.

Q: What about the “In vitro Sensitivity Test E.coli E-17” value [15] of the same compound?
A: Its value is 0.05 µg/ml.

Q: And the “In vitro Sensitivity Test S.au 209P” value [7]?
A: The value was under 0.0125 µg/mL.

Q: And the “In vitro Sensitivity Test B.br ABU-1” value [16]?
A: Its value is 1.56 µg/mL.

Q: What about the “In vitro Sensitivity Test H.pp M-1” value [8] of the same compound?
A: The value was 0.05 µg/mL.

Q: What about the “In vitro Sensitivity Test S.typhi 13311” value [9] of the same compound?
A: Its value is 0.2 µg/mL.
